Assay results: patent US20120114636A1, “LOW MOLECULAR WEIGHT CYCLIN E (LMW-E) AS A BIOMARKER FOR PERSONALIZATION OF CANCER THERAPIES” (The Board of Regents of the University of Texas System, priority 2009, published 2012)

How the values were obtained:
MCF-7/Ac1 cells [1] = test: Western blot of CDK2, phospho-CDK2, cyclin E, pRb; type: cell-based, human
Experimental: FIG. 28. Effect of increasing concentrations of letrozole in the presence of 25 nM AD on CDK2 kinase activity, activated CDK2 and Rb phosphorylation of MCF7/Ac1 human breast cancer cells. MCF-7/Ac1 cells were treated with the indicated concentrations of letrozole and AD for 3 days. CDK2 kinase assays were performed by immunoprecipitating equal amounts of cell lysate (250 μg) with monoclonal antibodies to CDK2 (D12, sc-6248) coupled to protein G beads, using histone H1 as substrate. […] The same cell lysates were subjected to western blot analysis (50 μg of protein) with the indicated antibodies.
Western blot analysis. Cell lysates were prepared and subjected to western blot analysis as described previously (Akli et al., 2004). Briefly, 50 μg of protein were subjected to electrophoresis on SDS-PAGE and transferred to Immobilon P overnight at 4° C. at […] constant voltage. The blots were blocked overnight at 4° C. in BLOTTO [5% nonfat dried milk in 20 mM Tris, 137 mM NaCl, and 0.05% Tween (pH 7.6)]. After being washed, the blots were incubated in primary antibodies for 3 h. Primary antibodies used were cyclin E (HE-12; Santa Cruz Biotechnology), p21 (0P64; Oncogene Research Products, Boston, Mass.), p27 (K25020; BD Biosciences-Transduction Laboratories, Lexington, Ky.), cyclin-dependent kinase 2 (CDK2; Transduction Laboratories), and actin (Chemicon International, Inc., Temecula, Calif.). Blots were then incubated with goat anti-mouse or anti-rabbit immunoglobulin-horseradish peroxidase conjugate at a dilution of 1:5000 in BLOTTO for 1 h and finally washed and developed by using the Renaissance chemiluminescence system as directed by the manufacturer (Perkin-Elmer Life Sciences, Inc., Boston, Mass.). Western blots were quantitated by densitometric analysis using IPLab Gel software (Scientific Image Processing, Vienna, Va.). Densitometric values of actin were used to standardize for equal protein loading. These values were introduced into the software Graph-Pad Prism version 4.0 (GraphPad Software, Inc., San Diego, Calif.) for statistical analysis.
MCF-7/Ac1 cells were treated with the indicated concentrations of letrozole and AD for 3 days. Cyclin E kinase assays were performed by immunoprecipitating equal amounts of cell lysate (250 μg) with monoclonal antibodies to cyclin E coupled to protein A beads, using histone H1 as substrate. […] The same cell lysates were subjected to western blot analysis (50 μg of protein) with the indicated antibodies. […] The same cell lysates were first immunoprecipitated with cyclin E followed by western blot for p21 and p27. […] The same cell lysates were first immunoprecipitated with CDK2 followed by western blot for p21 and p27. The levels of proteins were measured by densitometric scanning of the corresponding bands and normalized using actin values. The values indicated at the bottom were compared to the values obtained with untreated cells.

MCF-7/Ac1 cells [2] = test: S-phase fraction by flow cytometry of adenovirus-infected cells; type: cell-based, human; details: 1 μM letrozole with 25 nM AD
Experimental: Flow cytometry analysis. Cells were pelleted and resuspended in 1.5 ml of PBS, then fixed in 3.5 ml of 95% ethanol overnight at −20° C. After being washed, the pellets were resuspended in a solution of PBS containing 10 μg/ml propidium iodide, 20 μg/ml RNase A, 0.5% Tween 20, and 0.5% BSA and incubated at 37° C. for 30 min. The profiles of cells in the G0-G1, S, and G2-M phases of the cell cycle were analyzed at the M. D. Anderson Cancer Center Cytometry Core Facility on a FACS Caliber machine equipped with Cellquest or ModFit software.
LMW cyclin E, but not full-length cyclin E, overexpressing MCF-7/Ac1 cells partially override the letrozole inhibition of AD-induced S-phase entry and AD-induced CDK2 protein levels. Since overexpression of LMW cyclin E deregulates the G1 to S transition, the inventors interrogated the role of full-length and LMW cyclin E in letrozole response. To this end, the inventors examined the sensitivity of cyclin E overexpressing MCF-7/Ac1 cells to the growth inhibitory effect of letrozole using adenoviruses to overexpress full-length and LMW cyclin E (FIGS. 24A-24D). MCF-7/Ac1 cells were cultured in charcoal stripped serum media (CSSM) for 4 days before infecting them with 4000 m.o.i. of either LacZ, full-length cyclin E (cyclin EL) or LMW cyclin E (cyclin E-T1 and cyclin E-T2). Twenty-four hours later, cells were left either untreated, treated with 25 nM AD alone, or treated with 25 nM AD plus 1 μM letrozole for an additional 3 days (FIGS. 24A-24B). Following the treatment, cells were enumerated or subjected to flow cytometry analysis.
MCF-7/Ac1 cells were cultured in IMEM with 10% charcoal-stripped serum medium (CSSM) without phenol red and with 600 μg/ml of G418 for 4 days before plating. Triplicate wells of 6-well plates were then infected with the indicated adenoviruses (at 4000 m.o.i.) 24 hours before drug treatment. Cells were then left untreated (E2W, estrogen withdrawal) or treated with 25 nM AD (AD) or treated with 25 nM AD and 1 μM letrozole (AD+Let) and collected 3 days later for cell number. Cell growth is expressed as the percentage of the cells compared with the control cells (25 nM AD treated cells). […] MCF-7/Ac1 cells were treated as described in A, and collected for flow cytometry analysis. Histograms represent the S-phase fraction expressed as the percentage of the cells in S-phase compared with the control cells (25 nM AD treated cells). […] The same cell lysates as in A and B were subjected to western blot analysis (50 μg of protein) with cyclin E and CDK2 antibodies. The bar graph represents the densitometric values of the phosphorylated CDK2 bands. […] Left, MCF-7/Ac1 cells were cultured in IMEM with 10% charcoal-stripped serum medium (CSSM) without phenol red and with 600 μg/ml of G418 for 4 days before plating. Cells were then infected with the indicated adenoviruses (at 4000 m.o.i.) 24 hours before drug treatment. Cells were then treated with 25 nM AD and 1 μM letrozole and collected 3 days later for cell number. […] Columns, mean of two to three experiments, each in triplicates; bars, S.D.

## N#Cc1ccc(C(c2ccc(C#N)cc2)n2cncn2)cc1 [letrozole]
MCF-7/Ac1 cells [1]; 0.5 μM letrozole with 25 nM AD
  cyclin E protein levels: slightly decreased
MCF-7/Ac1 cells [1]; increasing letrozole with 25 nM AD
  effect on AD-induced increase in CDK2 protein levels: blocked the increase in CDK2 protein levels in a dose dependent manner
MCF-7/Ac1 cells [1]; letrozole with 25 nM AD
  phosphorylation of endogenous CDK2 substrate pRb: decreased phosphorylation
MCF-7/Ac1 cells [2]; LacZ-infected cells
  decrease in number of cells in S phase: 37%
MCF-7/Ac1 cells [2]; cyclin E-T1-infected cells
  decrease in number of cells in S phase: 16%
MCF-7/Ac1 cells [2]; cyclin E-T2-infected cells
  decrease in number of cells in S phase: 21%
MCF-7/Ac1 cells [2]; cyclin EL-infected cells
  decrease in number of cells in S phase: 42%
MCF-7/Ac1 cells [2]; uninfected cells
  decrease in number of cells in S phase: 62%
